Values quoted from earlier work as cited in patent EP4364951A1, “OVERCOAT INK AND INK SET CONTAINING SAME” (DNP Fine Chemicals Co., Ltd., priority 2021, dated 2023).

Conditions: water-octanol, common logarithm

Row | Partition coefficient | Compound
1 | 3- M ethyl- 1,3- butanediol (-0.329) | CC(C)(O)CCO [3-M ethyl-1,3-butanediol]
2 | 3-Methoxy -1-butanol (0.070) | COC(C)CCO (stereo not shown) [3-Methoxy-1-butanol]
3 | 1.2-Pentanediol (0.011) | CCCC(O)CO (stereo not shown) [1.2-Pentanediol]
4 | 1,2-Butanediol (-0.499) | CCC(O)CO (stereo not shown) [1,2-Butanediol]

Row | Compound | Partition coefficient
5 | CC(O)CO (stereo not shown) [1,2-Propanediol] | 1,2-Propanediol (-1.008)
6 | CCOCCOCCO [Diethylene glycol monoethyl ether] | Diethylene glycol monoethyl ether (-0.421)
7 | OCCCO [1,3-Propanediol] | 1,3-Propanediol (-1.093)
